Test results: the supplement of paper PMC4862054

Assays:
Experiment in all cases: drug sensitivity score (DSS), CellTox Green (DSS (AUC-based score)); higher = stronger drug effect (viability inhibition or cytotoxicity); extreme values may be limits of the assay
Details in all cases: incubation time: 72 h
[1] = tested on: HDQ-P1
Method in brief: (§1)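 The drug sensitivity score reflects the area under a fitted dose-response curve. To obtain it, breast cancer cells in 20 µl suspension were seeded into 384-well plates containing compound at 5 concentrations, 10-fold apart over a compound-specific 10,000-fold range, and incubated 72 h. CellTox Green fluorescence (485/520 nm) was read first and CellTiter-Glo luminescence second, after 10 min at room temperature. Each plate was normalised to 0.1 % DMSO and a positive kill control.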

[2] = tested on: MFM-223
Method in brief: as §1

[3] = tested on: HCC1143
Method in brief: as §1

[4] = tested on: MDA-MB-436
Method in brief: as §1

[5] = tested on: CAL-85-1
Method in brief: as §1

[6] = tested on: MCF-10A
Method in brief: as §1

[7] = tested on: HCC1599
Method in brief: as §1

[8] = tested on: MDA-MB-468
Method in brief: as §1

[9] = tested on: CAL-120
Method in brief: as §1

[10] = tested on: CAL-51
Method in brief: as §1

| Structure (SMILES) | drug sensitivity score [1] | drug sensitivity score [2] | drug sensitivity score [3] | drug sensitivity score [4] | drug sensitivity score [5] | drug sensitivity score [6] | drug sensitivity score [7] | drug sensitivity score [8] | drug sensitivity score [9] | drug sensitivity score [10] |
| --- | --- | --- | --- | --- | --- | --- | --- | --- | --- | --- |
| Cc1ccc([N+](=O)[O-])cc1S(=O)(=O)N(C)/N=C/c1cnc2ccc(Br)cn12 [PIK-75] | 11.6 | 12.3 | 9.38 | 0 | 25.2 | 32.7 | 7.69 | 19.6 | 2.85 | 36.9 |
| Oc1ncnc2[nH]ncc12 [Allopurinol] | 0 | 0 | 0 | 0 | 0.422 | 0 | 0 | 0 | 0 | 0 |
| O=NN(CCCl)C(=O)NCCCl [Carmustine] | 0 | 0 | 0 | 0 | 0 | 0 | 0 | 0 | 0 | 0 |
| COc1cc2c(cc1O)CC[C@@H]1[C@@H]2CC[C@]2(C)[C@@H](O)CC[C@@H]12 [2-methoxyestradiol] | 0 | 6.65 | 0 | 0 | 0 | 1.69 | 0 | 0 | 0.794 | 4.37 |
| CC1=C2C[C@H]3[C@@H](CC=C4C[C@@H](O)CC[C@@]43C)[C@@H]2CC[C@]12O[C@@H]1C[C@H](C)CN[C@H]1[C@H]2C [Cyclopamine] | 0 | 0 | 2.47 | 0 | 0 | 0 | 0 | 0 | 0 | 0 |
| O=C1CN2Cc3c(ccc(Cl)c3Cl)N=C2N1 [Anagrelide] | 0 | 0 | 0 | 0 | 0 | 0 | 0 | 0 | 0 | 14.2 |
| C[C@]12CC[C@@H]3c4ccc(OC(=O)N(CCCl)CCCl)cc4CC[C@H]3[C@@H]1CC[C@@H]2O [Estramustine] | – | 0 | 0 | 0 | 0 | 0 | 0 | 3.38 | 0 | 6.18 |
| CC(=O)c1c(C)c2cnc(Nc3ccc(N4CCNCC4)cn3)nc2n(C2CCCC2)c1=O [Palbociclib] | 0 | 0 | 0 | 0 | 0 | 0 | 0 | 0 | 0 | 0 |
| CC(=O)N(O)CCCCCNC(=O)CCC(=O)N(O)CCCCCNC(=O)CCC(=O)N(O)CCCCCN [Deferoxamine] | 0 | 0 | 0 | 0 | 0 | 0 | 0 | 0 | 0 | 4.29 |
| Cn1cnc2c(F)c(Nc3ccc(Br)cc3Cl)c(C(=O)NOCCO)cc21 [Selumetinib] | 2.06 | 0 | 0 | 0 | 0 | 0 | 0 | 6.94 | 2 | 0 |
| CC[C@@H]1C(=O)OC[C@@H]1Cc1cncn1C [Pilocarpine] | 0 | 0 | 0 | 0 | 0 | 0 | 0 | – | 0 | 0 |
| CC1(C)CNc2cc(NC(=O)c3cccnc3NCc3ccncc3)ccc21 [Motesanib] | 0 | 0 | 0 | 0 | 0 | 0 | 0 | 0 | 0 | 0 |
| CC(=O)O[C@@]12CO[C@@H]1C[C@H](O)[C@@]1(C)C(=O)[C@H](O)C3=C(C)[C@@H](OC(=O)[C@H](O)[C@@H](NC(=O)OC(C)(C)C)c4ccccc4)C[C@@](O)([C@@H](OC(=O)c4ccccc4)[C@H]21)C3(C)C [Docetaxel] | 6.92 | 10.2 | 5.08 | 0 | 25.5 | 19.1 | 0 | 0 | 0.904 | 26.2 |
| CC(C)(C)c1cnc(CSc2cnc(NC(=O)C3CCNCC3)s2)o1 [SNS-032] | 11.4 | 6.31 | 0 | 0 | 20.9 | 16.3 | 0 | 3.58 | 0 | 15.1 |
| Nc1ncn([C@@H]2O[C@H](CO)[C@@H](O)[C@H]2O)c(=O)n1 [Azacitidine] | 0 | 0 | 0 | 1.61 | 0 | 0 | 0 | 0.523 | 0 | 0 |
| COc1cc(F)c(F)c(Nc2ccc(I)cc2F)c1NS(=O)(=O)C1(C[C@H](O)CO)CC1 [Refametinib] | 0 | 0 | 0 | 0 | 12.3 | 0 | 0 | 6.47 | 0.239 | 0 |
| C[C@]1(O)C[C@@H](c2nc(-c3ccc4ccc(-c5ccccc5)nc4c3)c3c(N)nccn32)C1 [Linsitinib] | 0 | 0 | 0 | 14.3 | 0 | 0 | 0 | 0 | 0 | 0 |
| Cc1sc2c(c1C)C(c1ccc(Cl)cc1)=N[C@@H](CC(=O)OC(C)(C)C)c1nnc(C)n1-2 [(+)JQ1] | 0 | 0 | 0 | 0 | 8.47 | 0 | 0 | 8.47 | 1.56 | 6.31 |
| Cn1cc(C2=Nc3cc(NC(=O)C(N)C4CCCCC4)cc4c3C2=CNNC4=O)cn1 (stereo not drawn) | 7.95 | 5.76 | 0 | 0 | 12 | 16.2 | 0 | 3.14 | 1.7 | 11 |
| CC1(C)CCC(CN2CCN(c3ccc(C(=O)NS(=O)(=O)c4ccc(NCC5CCOCC5)c([N+](=O)[O-])c4)c(Oc4cnc5[nH]ccc5c4)c3)CC2)=C(c2ccc(Cl)cc2)C1 [ABT-199] | 0 | 0 | 0 | 0 | 0 | 0 | 0 | 13.3 | 0.378 | 0 |
| Nc1nc2[nH]cnc2c(=S)[nH]1 [Thioguanine] | 0 | 0 | 0 | 0 | 0 | 0 | 0 | 0 | 0 | 0 |
